One test has as its target T1, IKKε (Homo sapiens, UniProt Q14164).
T1 construct: purchased Invitrogen PR8031B
T1 sequence (Q14164 1-716): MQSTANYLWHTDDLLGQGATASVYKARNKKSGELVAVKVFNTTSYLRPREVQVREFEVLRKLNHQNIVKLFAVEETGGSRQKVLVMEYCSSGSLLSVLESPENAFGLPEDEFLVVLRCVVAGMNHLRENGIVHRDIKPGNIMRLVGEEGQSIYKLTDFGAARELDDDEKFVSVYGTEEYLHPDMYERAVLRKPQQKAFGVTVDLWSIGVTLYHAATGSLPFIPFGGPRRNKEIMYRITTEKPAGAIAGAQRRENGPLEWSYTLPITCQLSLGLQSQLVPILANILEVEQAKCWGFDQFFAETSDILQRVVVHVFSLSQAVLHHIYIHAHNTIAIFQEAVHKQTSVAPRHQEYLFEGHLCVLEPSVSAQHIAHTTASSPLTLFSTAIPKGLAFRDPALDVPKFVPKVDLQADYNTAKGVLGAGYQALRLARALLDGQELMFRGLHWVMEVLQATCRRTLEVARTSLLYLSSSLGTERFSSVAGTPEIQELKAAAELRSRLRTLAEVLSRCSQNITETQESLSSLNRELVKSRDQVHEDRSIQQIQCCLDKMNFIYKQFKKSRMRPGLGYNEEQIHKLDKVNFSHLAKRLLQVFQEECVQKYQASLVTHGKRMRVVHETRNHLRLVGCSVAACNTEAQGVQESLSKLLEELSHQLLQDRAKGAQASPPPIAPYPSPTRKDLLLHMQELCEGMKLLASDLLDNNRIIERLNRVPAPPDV
The test can be described thus: IKKε inhibition, ADP-Glo Kinase Assay. The test is classed as biochemical. The note with it: luminometer. The procedure, abridged:
(§1)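 ADP-Glo luminescence reported ADP produced by each kinase, following the kit protocol. Reactions used commercial kinase enzyme systems in buffer of 40 mM Tris (pH 7.5), 20 mM MgCl2 and 0.1 mg/mL BSA.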
Background: ADP-Glo first removes unused ATP, then detects ADP through luciferase.

A further test addresses T2, TBK1 (Homo sapiens, UniProt Q9UHD2).
T2 construct: purchased Promega V3991
T2 sequence (Q9UHD2 1-729): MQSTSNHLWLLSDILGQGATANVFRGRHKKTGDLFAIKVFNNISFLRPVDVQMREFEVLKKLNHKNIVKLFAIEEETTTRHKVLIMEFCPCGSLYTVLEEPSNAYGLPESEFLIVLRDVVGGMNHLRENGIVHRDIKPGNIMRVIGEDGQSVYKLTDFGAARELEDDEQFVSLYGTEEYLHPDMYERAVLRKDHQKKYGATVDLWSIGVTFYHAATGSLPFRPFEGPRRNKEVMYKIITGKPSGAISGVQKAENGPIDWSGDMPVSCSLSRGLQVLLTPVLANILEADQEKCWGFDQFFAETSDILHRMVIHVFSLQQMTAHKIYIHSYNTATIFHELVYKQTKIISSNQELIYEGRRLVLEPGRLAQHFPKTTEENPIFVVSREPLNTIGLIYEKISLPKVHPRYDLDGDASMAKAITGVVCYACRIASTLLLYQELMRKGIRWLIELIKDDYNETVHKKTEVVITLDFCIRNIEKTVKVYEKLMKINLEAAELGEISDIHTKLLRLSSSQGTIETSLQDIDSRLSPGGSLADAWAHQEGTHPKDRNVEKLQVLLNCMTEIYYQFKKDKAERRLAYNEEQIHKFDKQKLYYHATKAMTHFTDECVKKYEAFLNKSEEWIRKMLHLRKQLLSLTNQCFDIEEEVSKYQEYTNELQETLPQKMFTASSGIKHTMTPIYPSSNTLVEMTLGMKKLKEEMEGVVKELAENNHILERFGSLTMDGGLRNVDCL
Kind of test: TBK1 inhibition, ADP-Glo Kinase Assay. The test is classed as biochemical. The note with it: luminometer. The procedure, abridged:
as §1

Drawing on patent US10294207B2, “Pyrazole derivatives as TNIK, IKKϵ and TBK1 inhibitor and pharmaceutical composition comprising same” (GREEN CROSS CORPORATION, priority 2015, dated 2019), this text covers IC50 for 25 molecules.

In general, IC50 refers to the concentration that gives 50% inhibition. A high value points to lower potency.

As for `CC(NC(=O)c1ccc2[nH]nc(NC(=O)c3ccc(N4CCN(C)CC4)cc3)c2c1)c1ccco1` (centres unmarked) [Example 81, N-(1-(Furan-2-yl)ethyl)-3-(4-(4-methylpiperazin-1-yl)benzamido)-1H-indazole-5-carboxamide], the IC50 on IKKε is 0.021 µM; against TBK1, 0.0039 µM.

With `COc1ccc(C(=O)Nc2n[nH]c3ccc(C(=O)NCc4ccco4)cc23)cc1` [Example 2, N-(Furan-2-yl-methyl)-3-(4-methoxybenzamido)-1H-indazole-5-carboxamide], the values for the IC50 at IKKε and on TBK1 were 0.13 µM and 0.037 µM, respectively.

For the molecule `O=C(NCc1cccs1)c1ccc2[nH]nc(NC(=O)c3ccc(NCC4CCCO4)cc3)c2c1` (centres unmarked) [Example 157, 3-(4-(((Tetrahydrofuran-2-yl)methyl)amino)benzamido)-N-(thiophen-2-ylmethyl)-1H-indazole-5-carboxamide], the IC50 against IKKε came out at 0.05 µM; against TBK1, 0.008 µM.

Turning to `CCCC(NC(=O)c1ccc2[nH]nc(NC(=O)c3ccc(N4CCOCC4)cc3)c2c1)c1cccs1` (centres unmarked) [Example 58, 3-(4-Morpholinobenzamido)-N-(1-(thiophen-2-yl)butyl)-1H-indazole-5-carboxamide], the values for the IC50 against IKKε and on TBK1 were 0.13 µM and 0.039 µM, respectively.

Turning to `O=C(NCc1ccc(C(F)(F)F)cc1)c1ccc2[nH]nc(NC(=O)c3ccc(F)cc3)c2c1` [Example 21, 3-(4-Fluorobenzamido)-N-(4-(trifluoromethyl)benzyl)-1H-indazole-5-carboxamide], the IC50 on IKKε and against TBK1 was over 10 µM throughout.

`CCC(NC(=O)c1ccc2[nH]nc(NC(=O)c3ccc(N4CCNCC4)cc3)c2c1)c1cccs1` (centres unmarked) [Example 102, 3-(4-(Piperazin-1-yl)benzamido)-N-(1-(thiophen-2-yl)propyl)-1H-indazole-5-carboxamide]: the half-inhibitory concentration (IC50) turned out to be 0.025 µM against IKKε and 0.0058 µM against TBK1.

On to `CC(NC(=O)c1ccc2[nH]nc(NC(=O)c3ccc(N4CCNCC4)cc3)c2c1)c1ccccc1` (centres unmarked) [Example 181, N-(1-Phenylethyl)-3-(4-(piperazin-1-yl)benzamido)-1H-indazole-5-carboxamide 2,2,2-trifluoroacetate], for which the IC50 at IKKε came to 0.022 µM; at TBK1, 0.0039 µM.

For `CC(C)(NC(=O)c1ccc2[nH]nc(NC(=O)c3ccc(F)cc3)c2c1)c1ccccc1` [Example 20, 3-(4-Fluorobenzamido)-N-(2-phenylpropan-2-yl)-1H-indazole-5-carboxamide], the results for the IC50 against IKKε and against TBK1 were 0.35 µM and 0.31 µM, respectively.

As for `O=C(NCc1ncon1)c1ccc2[nH]nc(NC(=O)c3ccc(N4CCOCC4)cc3)c2c1` [Example 105, N-((1,2,4-Oxadiazol-3-yl)methyl)-3-(4-morpholinobenzamido)-1H-indazole-5-carboxamide 2,2,2-trifluoroacetate], the IC50 on IKKε came out at 1.14 µM; against TBK1, 0.1 µM.

Turning to `CN1CCN(c2ccc(C(=O)Nc3n[nH]c4ccc(C(=O)NCc5ccco5)cc34)cc2)CC1` [Example 51, N-(Furan-2-ylmethyl)-3-(4-(4-methylpiperazin-1-yl)benzamido)-1H-indazole-5-carboxamide], the IC50 was 0.064 µM against IKKε and 0.0081 µM against TBK1.

For the molecule `CC(C)CC(NC(=O)c1ccc2[nH]nc(NC(=O)c3ccc(F)cc3)c2c1)c1cccs1` (centres unmarked) [Example 33, 3-(4-Fluorobenzamido)-N-(3-methyl-1-(thiophen-2-yl)butyl)-1H-indazole-5-carboxamide], the figures for the IC50 on IKKε and on TBK1 were 6.36 µM and 4.69 µM, respectively.

On to `C[C@@H]1CN(c2ccc(C(=O)Nc3n[nH]c4ccc(C(=O)NC5(c6ccccc6)CC5)cc34)cc2)CCN1` [Example 77, (R)-3-(4-(3-Methylpiperazin-1-yl)benzamido)-N-(1-phenylcyclopropyl)-1H-indazole-5-carboxamide], for which the values for the IC50 against IKKε and at TBK1 were 0.018 µM and 0.0048 µM, respectively.

On to `CC[C@@H](NC(=O)c1ccc2[nH]nc(NC(=O)c3ccc(N4CCN(C)CC4)cc3)c2c1)c1ccccc1` [Example 191, (R)-3-(4-(4-Methylpiperazin-1-yl)benzamido)-N-(1-phenylpropyl)-1H-indazole-5-carboxamide], for which the IC50 against IKKε was determined as 0.014 µM; on TBK1, 0.0013 µM.

With `CCC(NC(=O)c1ccc2[nH]nc(NC(=O)c3ccc(N4CCN(C(C)=O)CC4)cc3)c2c1)c1ccsc1` (centres unmarked) [Example 209, 3-(4-(4-Acetylpiperazin-1-yl)benzamido)-N-(1-(thiophen-3-yl)propyl)-1H-indazole-5-carboxamide], the IC50 on IKKε was 0.015 µM; against TBK1, 0.0029 µM.

With `CC(NC(=O)c1ccc2[nH]nc(NC(=O)c3ccc(N4CCOCC4)cc3)c2c1)c1cccs1` (centres unmarked) [Example 43, 3-(4-Morpholinobenzamido)-N-(1-(thiophen-2-yl)ethyl)-1H-indazole-5-carboxamide], the IC50 turned out to be 0.0049 µM at IKKε and 0.0021 µM against TBK1.

Consider `CN1CCN(c2ccc(C(=O)Nc3n[nH]c4ccc(C(=O)NC5(c6cccs6)CCCCC5)cc34)cc2)CC1` [Example 147, 3-(4-(4-Methylpiperazin-1-yl)benzamido)-N-(1-(thiophen-2-yl)cyclohexyl)-1H-indazole-5-carboxamide], for which the figures for the half-maximal inhibitory concentration (IC50) against IKKε and against TBK1 were 0.34 µM and 0.11 µM, respectively.

Take `CC(C)CC(NC(=O)c1ccc2[nH]nc(NC(=O)c3ccc(N4CCOCC4)cc3)c2c1)c1cccs1` (centres unmarked) [Example 130, N-(3-Methyl-1-(thiophen-2-yl)butyl)-3-(4-morpholinobenzamido)-1H-indazole-5-carboxamide]: the IC50 against IKKε was 0.9 µM; at TBK1 it was 0.11 µM.

For the molecule `C[C@H]1CN(c2ccc(C(=O)Nc3n[nH]c4ccc(C(=O)NC5(c6ccccc6)CC5)cc34)cc2)CCN1` [Example 76, (S)-3-(4-(3-Methylpiperazin-1-yl)benzamido)-N-(1-phenylcyclopropyl)-1H-indazole-5-carboxamide], the results for the IC50 at IKKε and against TBK1 were 0.016 µM and 0.0046 µM, respectively.

Take `CC(C)CCNc1ccc(C(=O)Nc2n[nH]c3ccc(C(=O)NCc4cccs4)cc23)cc1` [Example 159, 3-(4-(Isopentylamino)benzamido)-N-(thiophen-2-ylmethyl)-1H-indazole-5-carboxamide]: the IC50 against IKKε stood at 0.31 µM; on TBK1 it was 0.033 µM.

With `CCC(NCc1ccc2[nH]nc(NC(=O)c3ccc(F)cc3)c2c1)c1cccs1` (centres unmarked) [Example 32], the IC50 at IKKε and on TBK1 was over 10 µM in each case.

Turning to `N#CC1(NC(=O)c2ccc3[nH]nc(NC(=O)c4ccc(F)cc4)c3c2)CC1` [Example 16, N-(1-Cyanocyclopropyl)-3-(4-fluorobenzamido)-1H-indazole-5-carboxamide], the IC50 against IKKε was determined as 0.91 µM; against TBK1 it was 0.39 µM.

`O=C(NCc1cccs1)c1ccc2[nH]nc(NC(=O)c3ccc(F)cc3F)c2c1` [Example 35, 3-(2,4-Difluorobenzamido)-N-(thiophen-2-ylmethyl)-1H-indazole-5-carboxamide]: the IC50 against IKKε was 0.93 µM; on TBK1, 0.28 µM.

In the case of `Cc1cc(N2CCOCC2)ccc1C(=O)Nc1n[nH]c2ccc(C(=O)NCc3cccs3)cc12` [Example 73, 3-(2-Methyl-4-morpholinobenzamido)-N-(thiophen-2-ylmethyl)-1H-indazole-5-carboxamide], the half-inhibitory concentration (IC50) against IKKε was determined as 0.044 µM; against TBK1, 0.004 µM.

Turning to `CC(NC(=O)c1ccc2[nH]nc(NC(=O)c3ccc(N4CCN(C)CC4)cc3)c2c1)c1cccnc1` (centres unmarked) [Example 53, 3-(4-(4-Methylpiperazin-1-yl)benzamido)-N-(1-(pyridin-3-yl)ethyl)-1H-indazole-5-carboxamide], the results for the IC50 against IKKε and at TBK1 were over 10 µM and 0.021 µM, respectively.

Turning to `O=C(NCc1cccs1)c1ccc2[nH]nc(NC(=O)c3ccc(N4CCNCC4)cc3)c2c1` [Example 171, 3-(4-(Piperazin-1-yl)benzamido)-N-(thiophen-2-ylmethyl)-1H-indazole-5-carboxamide], the IC50 amounted to 0.0038 µM at IKKε and 0.0003 µM against TBK1.
